How the values were obtained:
JAK3 = target: T1, JAK3 (Homo sapiens, UniProt P52333); assay: Inhibition of a panel of kinases, in vitro HotSpot kinase assay: JAK3; format: biochemical; details: D-compounds panel data; 1 μM ATP; read-out: IC50 JAK3
T1 sequence (P52333 1-1124): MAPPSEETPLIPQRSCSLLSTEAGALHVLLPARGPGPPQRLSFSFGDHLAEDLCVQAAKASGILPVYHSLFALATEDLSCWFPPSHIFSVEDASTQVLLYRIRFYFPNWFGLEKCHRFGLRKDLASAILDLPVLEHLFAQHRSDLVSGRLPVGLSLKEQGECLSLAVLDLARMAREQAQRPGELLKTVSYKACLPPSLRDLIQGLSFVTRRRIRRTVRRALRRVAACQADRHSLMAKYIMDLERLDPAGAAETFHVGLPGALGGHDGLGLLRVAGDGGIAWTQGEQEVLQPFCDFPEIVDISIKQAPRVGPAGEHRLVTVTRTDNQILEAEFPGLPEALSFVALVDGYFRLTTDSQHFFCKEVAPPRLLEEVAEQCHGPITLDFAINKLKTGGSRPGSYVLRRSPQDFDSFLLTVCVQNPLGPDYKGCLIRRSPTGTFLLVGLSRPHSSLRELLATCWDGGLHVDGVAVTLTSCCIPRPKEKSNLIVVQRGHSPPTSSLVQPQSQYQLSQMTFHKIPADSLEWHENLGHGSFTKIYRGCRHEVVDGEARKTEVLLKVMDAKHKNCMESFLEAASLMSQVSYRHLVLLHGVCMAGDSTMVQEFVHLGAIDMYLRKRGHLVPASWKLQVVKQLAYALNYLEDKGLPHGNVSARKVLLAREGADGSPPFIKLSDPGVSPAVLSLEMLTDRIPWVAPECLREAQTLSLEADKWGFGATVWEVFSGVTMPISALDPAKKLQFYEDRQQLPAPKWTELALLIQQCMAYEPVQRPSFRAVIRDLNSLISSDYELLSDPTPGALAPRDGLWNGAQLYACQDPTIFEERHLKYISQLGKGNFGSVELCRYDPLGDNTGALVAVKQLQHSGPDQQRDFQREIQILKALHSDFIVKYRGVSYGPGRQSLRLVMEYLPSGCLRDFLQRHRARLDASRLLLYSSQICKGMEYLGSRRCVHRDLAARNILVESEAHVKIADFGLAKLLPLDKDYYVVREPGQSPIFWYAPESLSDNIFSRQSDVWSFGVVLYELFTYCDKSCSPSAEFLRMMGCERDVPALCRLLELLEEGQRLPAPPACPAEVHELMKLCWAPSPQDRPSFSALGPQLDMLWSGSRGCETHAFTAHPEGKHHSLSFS

TEC = target: T2, TEC (Homo sapiens, UniProt P42680); assay: Inhibition of a panel of kinases, in vitro HotSpot kinase assay: TEC; format: biochemical; details: D-compounds panel data; 1 μM ATP
T2 sequence (P42680 1-631): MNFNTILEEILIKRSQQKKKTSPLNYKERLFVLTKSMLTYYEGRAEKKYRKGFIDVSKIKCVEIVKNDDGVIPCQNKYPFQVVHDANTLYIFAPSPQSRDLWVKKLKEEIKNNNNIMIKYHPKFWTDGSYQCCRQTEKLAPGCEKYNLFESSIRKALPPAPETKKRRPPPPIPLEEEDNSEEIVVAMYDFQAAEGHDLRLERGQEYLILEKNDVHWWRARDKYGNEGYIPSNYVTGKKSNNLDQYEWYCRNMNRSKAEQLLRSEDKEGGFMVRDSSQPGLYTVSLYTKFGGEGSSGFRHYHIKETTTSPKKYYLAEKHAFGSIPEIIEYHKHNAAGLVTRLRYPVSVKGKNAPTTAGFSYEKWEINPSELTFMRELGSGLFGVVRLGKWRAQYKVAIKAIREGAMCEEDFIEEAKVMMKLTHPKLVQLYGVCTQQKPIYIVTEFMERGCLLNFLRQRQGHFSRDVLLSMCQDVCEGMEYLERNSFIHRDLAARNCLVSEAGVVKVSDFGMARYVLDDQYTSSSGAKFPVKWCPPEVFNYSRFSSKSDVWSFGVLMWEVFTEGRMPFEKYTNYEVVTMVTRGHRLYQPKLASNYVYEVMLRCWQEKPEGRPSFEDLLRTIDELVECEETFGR
Procedure: The degree of inhibition of a panel of kinases is determined using the in vitro HotSpot kinase assay (purified enzymes, ^33P-ATP, an appropriate substrate and 1 μM ATP).

Row | Structure (SMILES) | IC50 (JAK3) [nM] | IC50 (TEC) [nM]
1 | C[C@@H]1[C@H](NC(=O)c2ccc(C3CC3)cc2F)CCCN1c1cnc(C(N)=O)c(Nc2ccc(CN3CCN(C)CC3)cc2)c1 [Example D-125, 5-[(2R,3R)-3-(4-cyclopropyl-2-fluorobenzamido)-2-methylpiperidin-1-yl]-3-({4-[(4-methylpiperazin-1-yl)methyl]phenyl}amino)pyridine-2-carboxamide] | 1000 to 10000 | 1000 to 10000
2 | C[C@@H]1[C@H](NC(=O)c2ccc(C3CC3)cc2F)CCCN1c1cnc(C(N)=O)c(Nc2ccc(N3CCN(C)CC3)cc2)c1 [Example D-126, 5-[(2R,3R)-3-(4-cyclopropyl-2-fluorobenzamido)-2-methylpiperidin-1-yl]-3-{[4-(4-methylpiperazin-1-yl)phenyl]amino}pyridine-2-carboxamide] | > 10000 | 1000 to 10000
3 | C[C@@H]1[C@H](NC(=O)N(C)C)CCCN1c1cnc(C(N)=O)c(Nc2ccc(N3CCN(C)CC3)cc2)c1 [Example D-127, 5-[(2R,3R)-3-[(dimethylcarbamoyl)amino]-2-methylpiperidin-1-yl]-3-{[4-(4-methylpiperazin-1-yl)phenyl]amino}pyridine-2-carboxamide] | > 10000 | 1000 to 10000
4 | C[C@@H]1[C@H](NC(=O)N(C)C)CCCN1c1cnc(C(N)=O)c(Nc2cnn(C)c2)n1 [Example D-128, 5-[(2R,3R)-3-[(dimethylcarbamoyl)amino]-2-methylpiperidin-1-yl]-3-[(1-methyl-1H-pyrazol-4-yl)amino]pyrazine-2-carboxamide] | 1000 to 10000 | 10 to 100
5 | C[C@@H]1[C@H](NC(=O)c2ccc(C3CC3)cc2F)CCCN1c1cnc(C(N)=O)c(Nc2ccn(C)n2)n1 [Example D-129, 5-[(2R,3R)-3-(4-cyclopropyl-2-fluorobenzamido)-2-methylpiperidin-1-yl]-3-[(1-methyl-1H-pyrazol-3-yl)amino]pyrazine-2-carboxamide] | > 10000 | > 10000
6 | C[C@@H]1[C@H](NC(=O)c2ccc(C3CC3)cc2F)CCCN1c1cnc(C(N)=O)c(Nc2ccc(S(=O)(=O)N3CCN(C)CC3)cc2)n1 [Example D-130, 5-[(2R,3R)-3-(4-cyclopropyl-2-fluorobenzamido)-2-methylpiperidin-1-yl]-3-({4-[(4-methylpiperazin-1-yl)sulfonyl]phenyl}amino)pyrazine-2-carboxamide] | > 10000 | 100 to 1000
7 | Cc1ccc(-c2cnc([C@@H]3CCCN(c4cnc(C(N)=O)c(Nc5cc(C)ns5)n4)[C@@H]3C)[nH]2)cc1 [Example D-131, 3-[(3-methyl-1,2-thiazol-5-yl)amino]-5-[(2R,3R)-2-methyl-3-[5-(4-methylphenyl)-1H-imidazol-2-yl]piperidin-1-yl]pyrazine-2-carboxamide] | 100 to 1000 | 100 to 1000
8 | C[C@@H]1[C@H](NC(=O)c2ccc(C3CC3)cc2F)CCCN1c1cnc(C(N)=O)c(Nc2ccc(CN3CCN(C)CC3)cn2)n1 [Example D-132, 5-[(2R,3R)-3-(4-cyclopropyl-2-fluorobenzamido)-2-methylpiperidin-1-yl]-3-({5-[(4-methylpiperazin-1-yl)methyl]pyridin-2-yl}amino)pyrazine-2-carboxamide] | > 10000 | 1000 to 10000
9 | C[C@@H]1[C@H](NC(=O)c2ccc(C3CC3)cc2F)CCCN1c1cnc(C(N)=O)c(Nc2ccc(S(C)(=O)=O)cc2)n1 [Example D-133, 5-[(2R,3R)-3-(4-cyclopropyl-2-fluorobenzamido)-2-methylpiperidin-1-yl]-3-[(4-methanesulfonylphenyl)amino]pyrazine-2-carboxamide] | 1000 to 10000 | 100 to 1000
10 | C[C@@H]1[C@H](NC(=O)c2ccc(C3CC3)cc2F)CCCN1c1cnc(C(N)=O)c(Nc2ccc(C3(C)CCN(C4CCC4)CC3)cc2)n1 [Example D-134, 3-{[4-(1-cyclobutyl-4-methylpiperidin-4-yl)phenyl]amino}-5-[(2R,3R)-3-(4-cyclopropyl-2-fluorobenzamido)-2-methylpiperidin-1-yl]pyrazine-2-carboxamide] | 100 to 1000 | 10 to 100
11 | C[C@@H]1[C@H](NC(=O)c2ccc(C3CC3)cc2)CCCN1c1cnc(C(N)=O)c(Nc2cnn(C)c2)n1 [Example D-135, 5-[(2R,3R)-3-(4-cyclopropylbenzamido)-2-methylpiperidin-1-yl]-3-[(1-methyl-1H-pyrazol-4-yl)amino]pyrazine-2-carboxamide] | 1000 to 10000 | 10 to 100
12 | Cc1ccc(-c2cnc([C@H]3CCCN(c4cnc(C(N)=O)c(Nc5cc(C)ns5)n4)C3)[nH]2)cc1 [Example D-136, 3-[(3-methyl-1,2-thiazol-5-yl)amino]-5-[(3S)-3-[5-(4-methylphenyl)-1H-imidazol-2-yl]piperidin-1-yl]pyrazine-2-carboxamide] | 1000 to 10000 | 100 to 1000
13 | Cc1ccc(-c2cnc([C@@H]3CCCN(c4cnc(C(N)=O)c(Nc5cc(C)ns5)n4)C3)[nH]2)cc1 [Example D-137, 3-[(3-methyl-1,2-thiazol-5-yl)amino]-5-[(3R)-3-[5-(4-methylphenyl)-1H-imidazol-2-yl]piperidin-1-yl]pyrazine-2-carboxamide] | > 10000 | 1000 to 10000
14 | C[C@@H]1[C@H](NC(=O)c2ccc(C3CC3)cc2F)CCCN1c1cnc(C(N)=O)c(Nc2ccc(C3(C)CCN(C4CC4)CC3)cc2)n1 [Example D-138, 5-[(2R,3R)-3-(4-cyclopropyl-2-fluorobenzamido)-2-methylpiperidin-1-yl]-3-{[4-(1-cyclopropyl-4-methylpiperidin-4-yl)phenyl]amino}pyrazine-2-carboxamide] | 10 to 100 | 10 to 100
15 | C[C@@H]1[C@H](NC(=O)c2ccc(C3CC3)cc2F)CCCN1c1cnc(C(N)=O)c(Nc2ccc(S(=O)(=O)N3CCCC3)cc2)n1 [Example D-139, 5-[(2R,3R)-3-(4-cyclopropyl-2-fluorobenzamido)-2-methylpiperidin-1-yl]-3-{[4-(pyrrolidine-1-sulfonyl)phenyl]amino}pyrazine-2-carboxamide] | > 10000 | 100 to 1000
16 | C[C@@H]1[C@H](NC(=O)c2ccc(C3CC3)cc2)CCCN1c1cnc(C(N)=O)c(Nc2cc(CN3CCCCC3)ns2)n1 [Example D-140, 5-[(2R,3R)-3-(4-cyclopropylbenzamido)-2-methylpiperidin-1-yl]-3-{[3-(piperidin-1-ylmethyl)-1,2-thiazol-5-yl]amino}pyrazine-2-carboxamide] | 100 to 1000 | 10 to 100
17 | CN1CCC(n2cc(Nc3nc(N4CCC[C@@H](n5ccc6cc(C7CC7)ccc6c5=O)C4)cnc3C(N)=O)cn2)CC1 [Example D-141, 5-[(3R)-3-(6-cyclopropyl-1-oxo-1,2-dihydroisoquinolin-2-yl)piperidin-1-yl]-3-{[1-(1-methylpiperidin-4-yl)-1H-pyrazol-4-yl]amino}pyrazine-2-carboxamide] | 1000 to 10000 | 10 to 100
18 | C[C@H]1CC[C@@H](NC(=O)c2ccc(C3CC3)cc2)CN1c1cnc(C(N)=O)c(Nc2cnn(C)c2)n1 [Example D-142, 5-[(2S,5R)-5-(4-cyclopropylbenzamido)-2-methylpiperidin-1-yl]-3-[(1-methyl-1H-pyrazol-4-yl)amino]pyrazine-2-carboxamide] | 100 to 1000 | 10 to 100

Reference: US20210070748A1, “INHIBITORS OF BRUTONS TYROSINE KINASE” (Pharmacyclics LLC, priority 2015, published 2021)
